Here are results for 2 molecules from patent US20190315775A1, “MODIFIED […] AND PHARMACEUTICAL COMPOSITION HAVING SAME AS ACTIVE INGREDIENT” (KEIO UNIVERSITY, priority 2016, published 2019).

Series [1] has as its system KMM1 high-risk MM cell line. The series can be described thus: WST-1 cell proliferation inhibition (Example 8), KMM1. Conditions: Homo sapiens, KMM-1, WST-1, 48 hours, read-out: IC50, cell proliferation inhibitory activity, KMM1. Format: cell-based. As for the experimental part:
Similar to Example 7, high-risk MM cell lines were treated with drugs, TC11 and PEG5(E)-TC11 at arbitrary concentrations. […] Specifically, each high-risk MM cell line was prepared at 5×10^5 cells/ml, and then seeded at 50 μl per well (2.5×10^4 cells). Drugs such as TC11, and PEG5(E)-TC11 were added to wells at arbitrary concentrations. WST-1 reagent was added at 48 hours after addition of drugs. After 1 hour of reaction at 37° C. in a CO2 incubator, absorbance was measured at a wavelength of 450 nm using a microplate reader. Cell viability was found from an absorbance ratio using absorbance at 0 μM designated as 100%. IC50 was calculated from a semi-logarithmic chart using Microsoft (registered trademark) Excel.
On the technique in general: Tetrazolium assays rely on reduction of a dye to a coloured formazan, in cell work by metabolically active cells.

The next series has as its target T1, cereblon (CRBN) (Homo sapiens, UniProt Q96SW2).
T1 construct: recombinant full-length CRBN prepared by the above method was reacted with the beads; T7 tag (N); FLAG tag (C); made in house; host or cells: 293T cells (pcDNA3.3 vector), RIPA extract purified on Ni Sepharose excel
Kind of series: Pull-down assay of cereblon with biotinylated drug on streptavidin beads. Format: binding. Conditions: 30° C., 30 minutes, FIG. 9A. As for the experimental part:
CRBN was prepared as follows. A T7 tag was added 5′-upstream of, and a FLAG tag and a histidine tag were added 3′-downstream of a full-length CRBN gene. The gene was introduced into a pcDNA3.3 expression vector (Invitrogen), thereby constructing a plasmid DNA. Next, a Kozak sequence was added 5′-upstream of the T7 tag using a KOD-Plus-Mutagenesis Kit (TOYOBO). The plasmid DNA was transfected into 293T cells. After 4 days of culture at 37° C. with 5% CO2, cells were extracted with a RIPA buffer (Thermo), and then the extracted fraction was purified using Ni Sepharose excel (GE Healthcare). Since the purified fraction contained imidazole, TBS (Nacalai Tesque) was subjected to buffer exchange. […] Centrifugation was performed to separate the resultants into a flow-through (F) fraction and a bead (B) fraction. Protein bands corresponding to CRBN were separated by SDS-PAGE, and then detected by Western blot. […] Note that “I” indicates “Input fraction”.

The nature of series [2]: Mouse blood kinetics upon single intraperitoneal administration. Format: in vivo. Conditions: male, ICR, plasma, ip, mice, single intraperitoneal TC11 60 mg/kg BW. The procedure: First, PEG11(E)-TC11(A) and PEG11(O)-TC11(B) were examined for stability in mouse blood. To 5-week-old male ICR mice (CLEA Japan, Tokyo, Japan), PEG11(E)-TC11 and PEG11(O)-TC11 were administered intraperitoneally at 59.1 mg/kg BW and 54.6 mg/kg BW, respectively, in such a manner that each molar concentration was equivalent to that of 20 mg/kg BW of TC11. At 0, 0.5, 1, 1.5, 4, 8, 12, and 24 hours later, a tail vein was punctured with a 26G needle for bleeding, and then about 100 μL of blood was collected using a heparinized hematocrit capillary tube (Terumo, Tokyo, Japan). After blood collection, blood was transferred into a 0.5-mL tube, and then subjected to centrifugation at 4° C. and 3,400 G for 15 minutes. Subsequently, the supernatant was collected, and then cryopreserved at −80° C. A quality control serum, Consera (registered trademark) (Nissui pharmaceutical, Tokyo, Japan) was dissolved in 3 mL of distilled water (dH2O) per bottle. After left to stand for 30 minutes, bottles were turned upside-down (mixing by inversion) and then used. Consera (190 μL) was mixed with the collected blood plasma and 10 μL of urine, thereby preparing samples. Moreover, PEG11(E)-TC11 and HOEtO-TC11 were each diluted with dH2O in such a manner that the concentrations were 0, 2, 4, 6, 8, and 10 μM, and then 10 μL of the solution at each concentration and 190 μL of Consera were mixed, thereby preparing a calibration curve sample. […]
HPLC analysis was conducted using Inertsil (registered trademark) ODS-3 […]×Φ4.6 mm as a stationary phase, CH3CN:dH2O=50:50 as a mobile phase, a flow rate of 0.70 mL/min, a UV detection wavelength of 267 nm, and an excitation wavelength of 380 nm, a fluorescence wavelength of 530 nm, and an injection amount of 10 μL at a column temperature of 25° C.
PEG11(E)-TC11 was examined. […] Note that as described in Example 7, since PEG11(E)-TC11 is quickly hydrolyzed by esterase in blood and then converted to HOEtO-TC11, the blood HOEtO-TC11 level was measured.

The nature of series [3]: Stability in mouse blood plasma. In kind it is in vitro ADME. The text has this: (§1) Subsequently, PEG11(E)-TC11 was examined for stability in mouse blood plasma (A) and in medium (B). […] Such degradation is considered to result from a small amount of esterase in FBS (fetal calf serum) contained in the medium.
A short description of series [4]: Stability in medium (containing FBS). In kind it is in vitro ADME.
Description: as §1

Series [5] relates to various high-risk MM cells (KMM1, KMS11, KMS21, KMS26, KMS27, KMS28, KMS34, MUM24). Kind of series: MTT cell viability of various MM cells, PEG11(E)-TC11 vs lenalidomide (Example 9). Format: cell-based, human. Conditions: 48 hours, FIG. 5A.

T1 sequence (Q96SW2 whole entry): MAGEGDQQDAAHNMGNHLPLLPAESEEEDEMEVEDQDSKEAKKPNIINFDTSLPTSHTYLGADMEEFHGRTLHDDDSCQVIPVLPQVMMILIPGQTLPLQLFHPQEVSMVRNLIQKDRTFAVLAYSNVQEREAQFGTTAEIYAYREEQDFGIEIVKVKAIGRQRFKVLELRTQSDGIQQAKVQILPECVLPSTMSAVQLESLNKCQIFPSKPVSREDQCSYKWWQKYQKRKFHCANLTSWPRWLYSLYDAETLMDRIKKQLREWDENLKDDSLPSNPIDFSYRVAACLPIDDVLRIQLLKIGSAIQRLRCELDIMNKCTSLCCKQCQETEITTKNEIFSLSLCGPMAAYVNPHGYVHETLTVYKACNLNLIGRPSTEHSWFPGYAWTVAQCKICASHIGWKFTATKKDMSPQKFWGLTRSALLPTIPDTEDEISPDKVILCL

On to `CC(C)c1cccc(C(C)C)c1N1C(=O)c2ccc(N)cc2C1=O` [TC11, 2-(2,6-di-isopropylphenyl)-5-amino-1H-isoindole-1,3-dione, reference compound], for which the IC50 in series [1] was found to be 5.7 µM. Also, the “Binding of CRBN to drug immobilized on beads (pull-down, Western blot)” value at cereblon (CRBN) was “did not bind”. In series [2] (read-out: Cmax, highest blood level), the Cmax came to 2600 nM. Further, the half-life in series [2] (read-out: t1/2, serum half-life (converted)) is 1.4 h. For the same molecule, the time to peak (Tmax) in series [2] (read-out: tmax, time at which the blood level reached the highest level) was 1.5 h.
For the molecule `COCCOCCOCCOCCOCCOCCOCCOCCOCCOCCOCCOCCC(=O)OCCOc1cc2c(cc1N)C(=O)N(c1c(C(C)C)cccc1C(C)C)C2=O` [PEG11(E)-TC11], the “Stability in mouse blood plasma” value in series [3] was “very quickly hydrolyzed by esterase in mouse blood plasma”. In series [4], the Stability in medium result is listed as “slowly degraded even in medium”. Further, the “In vitro cell proliferation inhibitory activity against various high-risk MM cells” value in series [5] is “significant in vitro cell proliferation inhibitory activity”.

What is called Cmax is the highest concentration seen after dosing. As a reminder, the Tmax is the time at which the peak concentration occurs.
